{
  "source": "patent US20260262643A1",
  "about": "“HERBICIDAL BENZOXAZINES” (FMC CORPORATION, priority 2022, published 2026)",
  "key": {"soybean [1]": {"system": "soybean", "experiment": "Test C preemergence", "format": "in vivo, Glycine max", "outline": "(§1)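 Visual injury score, 0–100 (100 = complete control), taken 10 days after treatment relative to untreated controls. Pre: directed spray onto soil over sown seeds. Post: foliar spray at one- to two-leaf stage, 2–10 cm. Solvent/surfactant formulation; loam–sand soil; greenhouse.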"}, "blackgrass [2]": {"system": "blackgrass", "experiment": "Test C postemergence", "format": "in vivo, Alopecurus myosuroides", "conditions": "10 days, 0 to 100 scale, 0 no effect, 100 complete control", "outline": "as §1"}, "barnyardgrass [3]": {"system": "barnyardgrass", "experiment": "Test C preemergence", "format": "in vivo, Echinochloa crusgalli", "outline": "as §1"}, "wheat [4]": {"system": "wheat", "experiment": "Test C postemergence", "format": "in vivo, Triticum aestivum", "conditions": "10 days, 0 to 100 scale, 0 no effect, 100 complete control", "outline": "as §1"}, "kochia [5]": {"system": "kochia", "experiment": "Test C postemergence", "format": "in vivo, Bassia scoparia", "conditions": "10 days, 0 to 100 scale, 0 no effect, 100 complete control", "outline": "as §1"}, "oat, wild [6]": {"system": "oat, wild", "experiment": "Test C postemergence", "format": "in vivo, Avena fatua", "conditions": "10 days, 0 to 100 scale, 0 no effect, 100 complete control", "outline": "as §1"}, "barnyardgrass [7]": {"system": "barnyardgrass", "experiment": "Test C postemergence", "format": "in vivo, Echinochloa crusgalli", "conditions": "10 days, 0 to 100 scale, 0 no effect, 100 complete control", "outline": "as §1"}, "soybean [8]": {"system": "soybean", "experiment": "Test C postemergence", "format": "in vivo, Glycine max", "conditions": "10 days, 0 to 100 scale, 0 no effect, 100 complete control", "outline": "as §1"}, "pigweed, palmer [9]": {"system": "pigweed, palmer", "experiment": "Test C preemergence", "format": "in vivo, Amaranthus palmeri", "outline": "as §1"}, "ryegrass, Italian [10]": {"system": "ryegrass, Italian", "experiment": "Test C postemergence", "format": "in vivo, Lolium multiflorum", "conditions": "10 days, 0 to 100 scale, 0 no effect, 100 complete control", "outline": "as §1"}, "ragweed [11]": {"system": "ragweed", "experiment": "Test C postemergence", "format": "in vivo, Ambrosia artemisiifolia", "conditions": "10 days, 0 to 100 scale, 0 no effect, 100 complete control", "outline": "as §1"}, "wheat [12]": {"system": "wheat", "experiment": "Test C preemergence", "format": "in vivo, Triticum aestivum", "outline": "as §1"}, "horseweed": {"system": "horseweed", "experiment": "Test C postemergence", "format": "in vivo, Erigeron canadensis", "conditions": "10 days, 0 to 100 scale, 0 no effect, 100 complete control", "outline": "as §1"}, "ryegrass, Italian [13]": {"system": "ryegrass, Italian", "experiment": "Test C preemergence", "format": "in vivo, Lolium multiflorum", "outline": "as §1"}, "corn [14]": {"system": "corn", "experiment": "Test C postemergence", "format": "in vivo, Zea mays", "conditions": "10 days, 0 to 100 scale, 0 no effect, 100 complete control", "outline": "as §1"}, "green foxtail [15]": {"system": "green foxtail", "experiment": "Test C preemergence", "format": "in vivo, Setaria viridis", "outline": "as §1"}, "pigweed, palmer [16]": {"system": "pigweed, palmer", "experiment": "Test C postemergence", "format": "in vivo, Amaranthus palmeri", "conditions": "10 days, 0 to 100 scale, 0 no effect, 100 complete control", "outline": "as §1"}, "ragweed [17]": {"system": "ragweed", "experiment": "Test C preemergence", "format": "in vivo, Ambrosia artemisiifolia", "outline": "as §1"}, "blackgrass [18]": {"system": "blackgrass", "experiment": "Test C preemergence", "format": "in vivo, Alopecurus myosuroides", "outline": "as §1"}, "green foxtail [19]": {"system": "green foxtail", "experiment": "Test C postemergence", "format": "in vivo, Setaria viridis", "conditions": "10 days, 0 to 100 scale, 0 no effect, 100 complete control", "outline": "as §1"}, "oat, wild [20]": {"system": "oat, wild", "experiment": "Test C preemergence", "format": "in vivo, Avena fatua", "outline": "as §1"}, "corn [21]": {"system": "corn", "experiment": "Test C preemergence", "format": "in vivo, Zea mays", "outline": "as §1"}, "kochia [22]": {"system": "kochia", "experiment": "Test C preemergence", "format": "in vivo, Bassia scoparia", "outline": "as §1"}, "galium": {"system": "galium", "experiment": "Test C postemergence", "format": "in vivo, Galium aparine", "conditions": "10 days, 0 to 100 scale, 0 no effect, 100 complete control", "outline": "as §1"}, "[23]": {"conditions": "Preemergence, 31 g ai/ha, 0 to 100 scale, 0 no effect, 100 complete control"}, "[24]": {"conditions": "Test C, preemergence, 125 g ai/ha, 0 to 100 scale (0 no effect, 100 complete control)"}},
  "data": [
    {"smiles": "Cc1ccc(-n2cnc(C3(O)CCCC3)n2)cc1C(=O)N1C[C@H](C)Oc2c(Cl)cccc21", "note": "[Compound 193]", "values": [
      {"measurement": "Plant response rating, Soybean", "setting": "soybean [1]; [23]", "result": 0},
      {"measurement": "Soybean plant response rating", "setting": "soybean [1]; [24]", "result": 90},
      {"measurement": "Plant response rating, Blackgrass", "setting": "blackgrass [2]; 125 g ai/ha, postemergence", "result": 60},
      {"measurement": "Plant response rating, Blackgrass", "setting": "blackgrass [2]; Postemergence, 31 g ai/ha", "result": 0},
      {"measurement": "Plant response rating, Barnyardgrass", "setting": "barnyardgrass [3]; [23]", "result": 10},
      {"measurement": "Barnyardgrass plant response rating", "setting": "barnyardgrass [3]; [24]", "result": 80},
      {"measurement": "Plant response rating, Wheat", "setting": "wheat [4]; 125 g ai/ha, postemergence", "result": 10},
      {"measurement": "Plant response rating, Wheat", "setting": "wheat [4]; Postemergence, 31 g ai/ha", "result": 10},
      {"measurement": "Plant response rating, Kochia", "setting": "kochia [5]; 125 g ai/ha, postemergence", "result": 80},
      {"measurement": "Plant response rating, Kochia", "setting": "kochia [5]; Postemergence, 31 g ai/ha", "result": 20},
      {"measurement": "Plant response rating, Oat, Wild", "setting": "oat, wild [6]; 125 g ai/ha, postemergence", "result": 0},
      {"measurement": "Plant response rating, Oat, Wild", "setting": "oat, wild [6]; Postemergence, 31 g ai/ha", "result": 0},
      {"measurement": "Plant response rating, Barnyardgrass", "setting": "barnyardgrass [7]; 125 g ai/ha, postemergence", "result": 40},
      {"measurement": "Plant response rating, Barnyardgrass", "setting": "barnyardgrass [7]; Postemergence, 31 g ai/ha", "result": 10},
      {"measurement": "Plant response rating, Soybean", "setting": "soybean [8]; 125 g ai/ha, postemergence", "result": 100},
      {"measurement": "Plant response rating, Soybean", "setting": "soybean [8]; Postemergence, 31 g ai/ha", "result": 100},
      {"measurement": "Plant response rating, Pigweed, Palmer", "setting": "pigweed, palmer [9]; [23]", "result": 60},
      {"measurement": "Pigweed, Palmer plant response rating", "setting": "pigweed, palmer [9]; [24]", "result": 90},
      {"measurement": "Plant response rating, Ryegrass, Italian", "setting": "ryegrass, Italian [10]; 125 g ai/ha, postemergence", "result": 50},
      {"measurement": "Plant response rating, Ryegrass, Italian", "setting": "ryegrass, Italian [10]; Postemergence, 31 g ai/ha", "result": 20},
      {"measurement": "Plant response rating, Ragweed", "setting": "ragweed [11]; 125 g ai/ha, postemergence", "result": 60},
      {"measurement": "Plant response rating, Ragweed", "setting": "ragweed [11]; Postemergence, 31 g ai/ha", "result": 50},
      {"measurement": "Plant response rating, Wheat", "setting": "wheat [12]; [23]", "result": 0},
      {"measurement": "Wheat plant response rating", "setting": "wheat [12]; [24]", "result": 0},
      {"measurement": "Plant response rating, Horseweed", "setting": "horseweed; 125 g ai/ha, postemergence", "result": 0},
      {"measurement": "Plant response rating, Horseweed", "setting": "horseweed; Postemergence, 31 g ai/ha", "result": 0},
      {"measurement": "Plant response rating, Ryegrass, Italian", "setting": "ryegrass, Italian [13]; [23]", "result": 60},
      {"measurement": "Ryegrass, Italian plant response rating", "setting": "ryegrass, Italian [13]; [24]", "result": 80},
      {"measurement": "Plant response rating, Corn", "setting": "corn [14]; 125 g ai/ha, postemergence", "result": 0},
      {"measurement": "Plant response rating, Corn", "setting": "corn [14]; Postemergence, 31 g ai/ha", "result": 0},
      {"measurement": "Plant response rating, Foxtail, Green", "setting": "green foxtail [15]; [23]", "result": 0},
      {"measurement": "Foxtail, Green plant response rating", "setting": "green foxtail [15]; [24]", "result": 0},
      {"measurement": "Plant response rating, Pigweed, Palmer", "setting": "pigweed, palmer [16]; 125 g ai/ha, postemergence", "result": 70},
      {"measurement": "Plant response rating, Pigweed, Palmer", "setting": "pigweed, palmer [16]; Postemergence, 31 g ai/ha", "result": 20},
      {"measurement": "Plant response rating, Ragweed", "setting": "ragweed [17]; [23]", "result": 0},
      {"measurement": "Ragweed plant response rating", "setting": "ragweed [17]; [24]", "result": 60},
      {"measurement": "Plant response rating, Blackgrass", "setting": "blackgrass [18]; [23]", "result": 0},
      {"measurement": "Blackgrass plant response rating", "setting": "blackgrass [18]; [24]", "result": 0},
      {"measurement": "Plant response rating, Foxtail, Green", "setting": "green foxtail [19]; 125 g ai/ha, postemergence", "result": 80},
      {"measurement": "Plant response rating, Foxtail, Green", "setting": "green foxtail [19]; Postemergence, 31 g ai/ha", "result": 30},
      {"measurement": "Plant response rating, Oat, Wild", "setting": "oat, wild [20]; [23]", "result": 0},
      {"measurement": "Oat, Wild plant response rating", "setting": "oat, wild [20]; [24]", "result": 20},
      {"measurement": "Plant response rating, Corn", "setting": "corn [21]; [23]", "result": 0},
      {"measurement": "Corn plant response rating", "setting": "corn [21]; [24]", "result": 0},
      {"measurement": "Plant response rating, Kochia", "setting": "kochia [22]; [23]", "result": 60},
      {"measurement": "Kochia plant response rating", "setting": "kochia [22]; [24]", "result": 100},
      {"measurement": "Plant response rating, Galium", "setting": "galium; 125 g ai/ha, postemergence", "result": 100},
      {"measurement": "Plant response rating, Galium", "setting": "galium; Postemergence, 31 g ai/ha", "result": 60}
    ]}
  ]
}
